In one test the test system is INS1. The experiment in a line: INS-1E survival protection against cytokine death – cell-based, luminescence, retest, dose response (AID 449756).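 Also: cell death triggered by IL-1 beta plus TNF-alpha plus IFN-gamma mixture; protective hits raise ATP signal compared with cytokine alone wells.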 Particulars: Rattus norvegicus. The format is functional.
Test [1] has as its system Streptococcus sp. 'group A'. The experiment in a line: Streptococcus pyogenes SK(-)GAS viability under kanamycin – luminescence, BacTiterGlo, confirmation, counter-screen for streptokinase expression inhibitor project, dose response (AID 1900). In kind it is functional, organism-based.
In another test the test system is HEK293. The experiment in a line: EBV LMP1 TES2 canonical NF-kB signalling blockers – cell-based, HEK293, luciferase, cherry-pick, dose response (AID 588343). In kind it is functional. Particulars: Homo sapiens.
A short description of test [2]: Counterscreen for AddAB inhibitors: absorbance-based bacterial cell-based high throughput dose response assay for inhibitors of bacterial viability. [Related pubchem assays (depositor defined):AID435030, AID449728, AID449731, AID488942, AID488955, AID488956]. In kind it is functional.
A further test has as its target T1, Streptokinase A (Streptococcus pyogenes serotype M1, UniProt P10520).
T1 sequence (P10520 whole entry): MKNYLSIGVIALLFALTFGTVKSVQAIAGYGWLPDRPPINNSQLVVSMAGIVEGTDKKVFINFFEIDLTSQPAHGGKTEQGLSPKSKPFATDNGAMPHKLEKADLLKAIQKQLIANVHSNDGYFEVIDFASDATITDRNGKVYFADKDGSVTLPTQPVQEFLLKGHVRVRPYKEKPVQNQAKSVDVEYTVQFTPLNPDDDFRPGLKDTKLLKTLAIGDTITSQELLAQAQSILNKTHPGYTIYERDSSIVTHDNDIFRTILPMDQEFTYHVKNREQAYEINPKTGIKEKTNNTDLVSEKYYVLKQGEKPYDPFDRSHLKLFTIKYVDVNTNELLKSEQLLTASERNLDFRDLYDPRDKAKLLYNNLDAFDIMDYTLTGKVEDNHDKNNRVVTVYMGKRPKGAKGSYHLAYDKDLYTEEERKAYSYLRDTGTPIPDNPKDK
The test can be described thus: viability-normalized secreted streptokinase activity reduction – plasminogen activation absorbance, OD405, dose response (AID 1914).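 Also: secreted streptokinase activity via plasminogen activation per viability signal from cell pellet.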 In kind it is functional, Streptococcus pyogenes M1 GAS.

Test [3] is described as follows: NIH3T3 cell viability loss – ATP luminescence, mouse fibroblasts, counter-screen, dose response (AID 2010).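 Also: cells exposed to compound for about 90 hours before reading.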 In kind it is functional, cell-based.
Test [4] addresses T2, Cysteine protease ATG4B (Homo sapiens, UniProt Q9Y4P1).
T2 sequence (Q9Y4P1 whole entry): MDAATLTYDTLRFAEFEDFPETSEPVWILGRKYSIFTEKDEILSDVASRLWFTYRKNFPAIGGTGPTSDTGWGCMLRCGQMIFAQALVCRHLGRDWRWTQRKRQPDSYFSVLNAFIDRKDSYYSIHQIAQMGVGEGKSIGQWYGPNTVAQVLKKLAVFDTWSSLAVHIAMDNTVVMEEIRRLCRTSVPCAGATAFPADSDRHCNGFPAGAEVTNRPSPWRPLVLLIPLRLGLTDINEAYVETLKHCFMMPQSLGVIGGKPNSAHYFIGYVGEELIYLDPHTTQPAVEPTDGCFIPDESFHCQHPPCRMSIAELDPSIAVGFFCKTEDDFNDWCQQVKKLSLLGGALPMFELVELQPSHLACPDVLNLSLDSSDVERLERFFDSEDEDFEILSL
In kind it is functional.

Test [5] concerns the target ATP-dependent molecular chaperone HSP82 (Candida albicans (strain WO-1) (Yeast), UniProt C4YTQ8). The test can be described thus: steroid-induced GRE reporter decrease in yeast – S. cerevisiae, luminescence, Hsp90 inhibitor project, dose response (AID 2400).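 Also: beta-galactosidase luminescence from glucocorticoid response element reporter as proxy for Hsp90 function; inhibitor potency where signal loss means Hsp90 inhibition.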 The format is functional, cell-based.
Test [6] in a line: luciferase reporter signal suppression in cells – H4 neuroglioma cells, luminescence, dose response (AID 1990). In kind it is functional, cell-based.
A further test relates to Streptococcus. The test can be described thus: GAS UMAA2166 growth inhibition – luminescence, BacTiterGlo, counter-screen for streptokinase expression inhibitor project, dose response (AID 1915).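 Also: potency for reduction of bacterial viability or growth.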 In kind it is functional, organism-based.
For test [7], the target named is T2, Cysteine protease ATG4B. The experiment in a line: autophagin-1 cysteine protease inhibition – biochemical, fluorescence, set 2, dose response (AID 588584). The format is functional.
Test [8] deals with Bifunctional protein GlmU (Mycobacterium tuberculosis, UniProt P9WMN3). The test can be described thus: Inhibitors of Mycobacterial Glucosamine-1-phosphate acetyl transferase (GlmU). Secondary screen. More on the design: species or system Mycobacterium tuberculosis H37Rv.
Chain of Bifunctional protein GlmU (P9WMN3 whole entry): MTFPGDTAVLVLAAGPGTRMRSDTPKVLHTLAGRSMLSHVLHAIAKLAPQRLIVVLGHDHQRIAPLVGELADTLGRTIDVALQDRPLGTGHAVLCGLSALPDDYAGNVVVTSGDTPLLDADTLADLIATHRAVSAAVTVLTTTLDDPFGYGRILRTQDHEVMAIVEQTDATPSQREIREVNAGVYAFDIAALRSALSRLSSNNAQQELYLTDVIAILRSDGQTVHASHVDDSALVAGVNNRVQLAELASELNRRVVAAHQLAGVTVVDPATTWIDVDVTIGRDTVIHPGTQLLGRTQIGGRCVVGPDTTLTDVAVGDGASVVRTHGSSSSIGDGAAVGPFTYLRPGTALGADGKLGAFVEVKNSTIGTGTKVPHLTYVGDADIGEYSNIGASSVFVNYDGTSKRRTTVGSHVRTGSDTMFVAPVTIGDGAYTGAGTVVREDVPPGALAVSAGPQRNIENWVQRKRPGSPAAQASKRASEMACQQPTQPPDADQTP
Test [9] deals with Induced myeloid leukemia cell differentiation protein Mcl-1 (Homo sapiens, UniProt Q07820). In kind it is functional.
Chain of Induced myeloid leukemia cell differentiation protein Mcl-1 (Q07820 whole entry): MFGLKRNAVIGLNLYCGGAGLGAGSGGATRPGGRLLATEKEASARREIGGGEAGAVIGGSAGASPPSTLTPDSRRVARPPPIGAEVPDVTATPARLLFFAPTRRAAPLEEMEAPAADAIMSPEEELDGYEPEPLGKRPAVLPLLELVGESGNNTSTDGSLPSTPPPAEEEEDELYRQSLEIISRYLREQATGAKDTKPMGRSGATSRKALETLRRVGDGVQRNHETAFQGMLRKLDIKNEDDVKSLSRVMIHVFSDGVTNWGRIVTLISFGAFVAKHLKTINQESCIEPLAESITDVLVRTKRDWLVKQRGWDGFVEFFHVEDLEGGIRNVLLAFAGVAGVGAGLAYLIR
Test [10] deals with Dual specificity tyrosine-phosphorylation-regulated kinase 1A (Rattus norvegicus, UniProt Q63470). The format is biochemical, Homo sapiens.
The next test has as its target Beta-lactamase (Salmonella choleraesuis (strain SC-B67), UniProt Q5J463).
The target in test [11] is UDP-galactopyranose mutase (Mycobacterium tuberculosis, UniProt P9WIQ1). The experiment in a line: Inhibitors of Mycobacterium tuberculosis UDP-galactopyranose mutase (UGM) enzyme Measured in Biochemical System Using Plate Reader - 2105-02_Inhibitor_Dose_CherryPick_Activity. [Related pubchem assays (depositor defined):AID504439].
Chain of UDP-galactopyranose mutase (P9WIQ1 whole entry): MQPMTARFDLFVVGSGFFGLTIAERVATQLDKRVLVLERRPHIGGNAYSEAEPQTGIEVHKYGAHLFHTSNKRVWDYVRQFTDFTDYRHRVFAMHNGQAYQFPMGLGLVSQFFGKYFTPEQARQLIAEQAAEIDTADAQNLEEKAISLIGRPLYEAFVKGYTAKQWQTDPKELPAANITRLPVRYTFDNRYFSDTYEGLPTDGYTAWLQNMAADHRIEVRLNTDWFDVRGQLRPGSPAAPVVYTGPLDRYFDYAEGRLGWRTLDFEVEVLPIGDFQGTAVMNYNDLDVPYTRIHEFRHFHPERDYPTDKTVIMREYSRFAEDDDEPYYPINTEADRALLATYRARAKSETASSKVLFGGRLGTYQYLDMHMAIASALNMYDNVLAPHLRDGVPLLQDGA

Activity calls are given as the source filed them. A value given as a limit tells only on which side of the number the result lay.

Chain of ATP-dependent molecular chaperone HSP82 (C4YTQ8 whole entry): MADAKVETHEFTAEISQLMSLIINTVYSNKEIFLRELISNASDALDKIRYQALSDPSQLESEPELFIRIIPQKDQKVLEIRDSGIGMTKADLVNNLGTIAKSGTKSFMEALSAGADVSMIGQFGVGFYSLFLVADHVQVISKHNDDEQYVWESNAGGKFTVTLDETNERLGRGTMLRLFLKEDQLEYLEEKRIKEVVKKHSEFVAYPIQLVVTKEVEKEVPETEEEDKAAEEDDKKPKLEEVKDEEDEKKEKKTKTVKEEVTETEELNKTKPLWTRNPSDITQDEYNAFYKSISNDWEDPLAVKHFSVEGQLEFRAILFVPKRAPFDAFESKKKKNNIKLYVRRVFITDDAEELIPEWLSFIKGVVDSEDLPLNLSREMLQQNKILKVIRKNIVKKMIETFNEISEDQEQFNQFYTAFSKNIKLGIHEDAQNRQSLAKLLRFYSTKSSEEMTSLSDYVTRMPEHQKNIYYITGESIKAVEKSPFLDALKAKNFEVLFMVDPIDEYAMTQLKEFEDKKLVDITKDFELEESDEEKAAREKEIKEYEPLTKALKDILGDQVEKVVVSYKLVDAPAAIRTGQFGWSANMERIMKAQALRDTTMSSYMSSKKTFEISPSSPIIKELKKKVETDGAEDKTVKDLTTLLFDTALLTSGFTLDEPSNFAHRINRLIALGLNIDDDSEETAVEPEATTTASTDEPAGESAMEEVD
Chain of Beta-lactamase (Q5J463 whole entry): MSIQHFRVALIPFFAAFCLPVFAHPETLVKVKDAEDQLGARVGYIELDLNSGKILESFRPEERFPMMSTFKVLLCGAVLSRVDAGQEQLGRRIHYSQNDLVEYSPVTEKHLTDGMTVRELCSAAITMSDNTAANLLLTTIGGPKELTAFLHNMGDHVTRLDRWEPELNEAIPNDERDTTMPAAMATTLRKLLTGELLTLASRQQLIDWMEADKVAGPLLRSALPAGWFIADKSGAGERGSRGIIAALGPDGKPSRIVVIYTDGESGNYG

With `Oc1ccc2ccccc2c1/C=N/Nc1nnc(-c2ncc[nH]2)c2ccccc12`, the half-maximal activity concentration (AC50) with INS1 was 0.424 µM (active); in the test with HEK293 it was 1.79 µM (active). The concentration for a half-maximal effect (EC50) was 1.98 µM (active) in [1]; 5.52 µM (active) on Streptokinase A; < 6 µM (inconclusive) in test [3]; 3.23 µM (active) in [5]; 0.178 µM (active) in test [6]; 5.84 µM (active) with Streptococcus. The IC50 was > 119 µM (inactive) in test [2], 2.53 µM (active) on Cysteine protease ATG4B [4] and 5.4 µM (active) on Cysteine protease ATG4B [7].

As for `CC(C)C(C(=O)O)N1C(=O)/C(=C/C=C/c2ccco2)SC1=S` (stereo unspecified), the IC50 was 47.9 µM (active) in test [8] and > 54 µM (active) in test [9].

Take `O=C1CCN2C=Nc3cccc4ccc1c2c34`: the values for the AC50 in test [10] and in test [11] were 3 µM (active) and 2.33 µM (active), respectively. On Beta-lactamase, the IC50 was 7.55 µM (active).

Values taken from ChEMBL document CHEMBL1201862, “PubChem BioAssay data set” (2004).
